Results: ChEMBL document CHEMBL5257141, “PROTAC: Harnessing Targeted Chimeras for Selective BCL-2 Degradation in Cancer Treatment” (ACS Med Chem Lett, 2023)

molecular target: Apoptosis regulator Bcl-2 (Homo sapiens, UniProt P10415); test: Inhibition of BCL-2 (unknown origin) using FITC-Ahx-GQVGRQLAIIGDDINR-CONH2 as substrate incubated for 4 hrs by fluorescence polarization competition assay
Sequence (P10415 whole entry): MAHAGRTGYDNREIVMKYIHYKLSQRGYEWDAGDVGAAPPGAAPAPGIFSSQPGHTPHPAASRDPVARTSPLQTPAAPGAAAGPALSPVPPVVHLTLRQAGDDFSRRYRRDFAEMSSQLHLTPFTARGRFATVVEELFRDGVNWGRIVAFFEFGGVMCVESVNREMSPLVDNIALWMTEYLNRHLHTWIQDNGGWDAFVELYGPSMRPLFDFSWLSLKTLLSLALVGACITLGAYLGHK

Row | Structure (SMILES) | IC50 [nM]
1 | CC1(C)CCC(CN2CCN(c3ccc(C(=O)NS(=O)(=O)c4ccc(NCCOCCOCCNC(=O)CCNC(=O)COc5cccc6c5C(=O)N(C5CCC(=O)NC5=O)C6=O)c([N+](=O)[O-])c4)c(Oc4cnc5[nH]ccc5c4)c3)CC2)=C(c2ccc(Cl)cc2)C1 (stereo not given) | < 20
2 | CC1(C)CCC(CN2CCN(c3ccc(C(=O)NS(=O)(=O)c4ccc(NCCOCCOCCNC(=O)COc5cccc6c5C(=O)N(C5CCC(=O)NC5=O)C6=O)c([N+](=O)[O-])c4)c(Oc4cnc5[nH]ccc5c4)c3)CC2)=C(c2ccc(Cl)cc2)C1 (stereo not given) | < 20
3 | CC1(C)CCC(CN2CCN(c3ccc(C(=O)NS(=O)(=O)c4ccc(NCCNC(=O)COc5cccc6c5C(=O)N(C5CCC(=O)NC5=O)C6=O)c([N+](=O)[O-])c4)c(Oc4cnc5[nH]ccc5c4)c3)CC2)=C(c2ccc(Cl)cc2)C1 (stereo not given) | < 20

More lines, now with the values ahead:

Row | IC50 [nM] | Structure (SMILES)
4 | < 20 | COc1cc(C(=O)NCCNc2ccc(S(=O)(=O)NC(=O)c3ccc(N4CCN(CC5=C(c6ccc(Cl)cc6)CC(C)(C)CC5)CC4)cc3Oc3cnc4[nH]ccc4c3)cc2[N+](=O)[O-])ccc1NC(=O)[C@@H]1N[C@@H](CC(C)(C)C)[C@](C#N)(c2ccc(Cl)cc2F)[C@H]1c1cccc(Cl)c1F
5 | < 20 | COc1cc(C(=O)NCCOCCOCCNc2ccc(S(=O)(=O)NC(=O)c3ccc(N4CCN(CC5=C(c6ccc(Cl)cc6)CC(C)(C)CC5)CC4)cc3Oc3cnc4[nH]ccc4c3)cc2[N+](=O)[O-])ccc1NC(=O)[C@@H]1N[C@@H](CC(C)(C)C)[C@](C#N)(c2ccc(Cl)cc2F)[C@H]1c1cccc(Cl)c1F
